Assay results published in patent US5438053A, “Cephem compounds compositions and method” (Takeda Chemical Industries, Ltd., priority 1992, dated 1995).

Legend:
P. aeruginosa NC-5 = test: Minimal inhibitory concentration (MIC) by the agar dilution method, P. aeruginosa NC-5; format: cell-based; conditions: Pseudomonas aeruginosa, NC5, Mueller-Hinton agar, about 10^4 CFU/spot, 37° C. overnight
Protocol: (§1) Test Example 1 Minimal Inhibitory Concentrations (MIC)
(§2) The minimal inhibitory concentrations (MIC) of the test compounds were determined by the agar dilution method. More specifically, 0.25 ml each of aqueous solutions of the test compounds diluted by the serial dilution method was poured into petridishes. To each of these petridishes was poured 9.75 ml of Mueller-Hinton agar, followed by mixing. On each of these agar plates was a suspension of the test microorganism (about 10^4 CFU/spot). The lowest concentration of the test compounds inhibiting the growth of test microorganisms, after the incubation at 37° C. overnight, was taken as MIC.

P. aeruginosa P9 = test: Minimal inhibitory concentration (MIC) by the agar dilution method, P. aeruginosa P9; format: cell-based; conditions: Pseudomonas aeruginosa, Mueller-Hinton agar, about 10^4 CFU/spot, 37° C. overnight
Protocol: as §1, §2

| MIC (P. aeruginosa NC-5) [µg/mL] | MIC (P. aeruginosa P9) [µg/mL] | Compound |
| --- | --- | --- |
| 0.05 | 0.1 | CO/N=C(\C(=O)N[C@@H]1C(=O)N2C(C(=O)O)=C(CSc3snc(SCc4cc(=O)c(O)cn4O)c3C#N)CS[C@H]12)c1nsc(N)n1 [Ex. 3, Sodium 7β-[2-(5-amino-1,2,4-thiadiazol-3-yl)-(Z)-2-methoxyiminoacetamido]-3-[[4-cyano-3-[(1,5-dihydroxy-4-pyridon-2-yl)methylthio]isothiazol-5-yl]thiomethyl]-3-cephem-4-carboxylate] |
| 0.1 | 0.2 | CO/N=C(\C(=O)N[C@@H]1C(=O)N2C(C(=O)O)=C(CSc3nnnn3Cc3cc(=O)c(O)cn3OC)CS[C@H]12)c1nsc(N)n1 [Ex. 10, Sodium 7β-[2-(5-amino-1,2,4-thiadiazol-3-yl)-(Z)-2-methoxyiminoacetamido]-3-[[1-[(5-hydroxy-1-methoxy-4-pyridon-2-yl)methyl]-1H-tetrazol-5-yl]thiomethyl]-3-cephem-4-carboxylate] |
| 0.2 | 0.2 | CCO/N=C(\C(=O)N[C@@H]1C(=O)N2C(C(=O)O)=C(CSc3nnnn3Cc3cc(=O)c(O)cn3OC)CS[C@H]12)c1nsc(N)n1 [Ex. 12, Sodium 7β-[2-(5-amino-1,2,4-thiadiazol-3-yl)-(Z)-2-ethoxyiminoacetamido]-3-[[1-[(5-hydroxy-1-methoxy-4-pyridon-2-yl)methyl]-1H-tetrazol-5-yl]thiomethyl]-3-cephem-4-carboxylate] |
| 0.006 | 0.025 | CC(C)(O/N=C(\C(=O)N[C@@H]1C(=O)N2C(C(=O)O)=C(CSc3nnnn3Cc3cc(=O)c(O)cn3O)CS[C@H]12)c1nsc(N)n1)C(=O)O [Ex. 26, Disodium 7β-[2-(5-amino-1,2,4-thiadiazol-3-yl)-(Z)-2-(1-carboxylato-1-methylethoxyimino)acetamido]-3-[[1-[(1,5-dihydroxy-4-pyridon-2-yl)methyl]-1H-tetrazol-5-yl]thiomethyl]-3-cephem-4-carboxylate] |
